# In PubChem BioAssay AID330 (DTP/NCI, 2004):
# Values joined by “and” are separate entries in the source; they are usually repeats but may differ in a detail not shown here. Identical values can stand only once. Inconclusive results and toxic doses are left out.
# System: P388 leukemia ip, CD2F1 mice, survival T/C
# Experiment: NCI In Vivo Anticancer Drug Screen. Data for tumor model P388 Leukemia (intraperitoneal) in CD2F1 (CDF1) mice
# Conditions: endpoint: median survival time, higher = longer survival
# Procedure, shortened: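 Mice carrying the transplanted tumor received test compound or vehicle. Survival was recorded in each group, and the value is the treated-group measurement divided by that of the vehicle-treated control group.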
# [1] = dose: 60.0 mg/kg/injection, schedule: Q01DX005 (ip), vehicle: saline
# [2] = dose: 120.0 mg/kg/injection, schedule: Q01DX005 (ip), vehicle: saline
# [3] = dose: 240.0 mg/kg/injection, schedule: Q01DX005 (ip), vehicle: saline
# [4] = dose: 50.0 mg/kg/injection, schedule: Q01DX009 (ip), vehicle: saline
# [5] = dose: 100.0 mg/kg/injection, schedule: Q01DX009 (ip), vehicle: saline
# [6] = dose: 100.0 mg/kg/injection, schedule: Q04DX003 (ip), vehicle: saline with Tween-80
# [7] = dose: 200.0 mg/kg/injection, schedule: Q04DX003 (ip), vehicle: saline with Tween-80
# [8] = dose: 50.0 mg/kg/injection, schedule: Q01DX009 (ip), vehicle: Klucel (hydroxypropylcellulose) (HPC)
# [9] = dose: 100.0 mg/kg/injection, schedule: Q01DX009 (ip), vehicle: Klucel (hydroxypropylcellulose) (HPC)
# [10] = dose: 200.0 mg/kg/injection, schedule: Q01DX009 (ip), vehicle: Klucel (hydroxypropylcellulose) (HPC)
# [11] = dose: 100.0 mg/kg/injection, schedule: Q04DX003 (ip), vehicle: saline
# [12] = dose: 200.0 mg/kg/injection, schedule: Q04DX003 (ip), vehicle: saline
# [13] = dose: 400.0 mg/kg/injection, schedule: Q04DX003 (ip), vehicle: saline
# [14] = dose: 50.0 mg/kg/injection, schedule: Q01DX005 (ip), vehicle: Klucel (hydroxypropylcellulose) (HPC)
# [15] = dose: 100.0 mg/kg/injection, schedule: Q01DX005 (ip), vehicle: Klucel (hydroxypropylcellulose) (HPC)
# [16] = dose: 25.0 mg/kg/injection, schedule: Q01DX005 (ip), vehicle: saline with Tween-80
# [17] = dose: 50.0 mg/kg/injection, schedule: Q01DX005 (ip), vehicle: saline with Tween-80
# [18] = dose: 100.0 mg/kg/injection, schedule: Q01DX005 (ip), vehicle: saline with Tween-80
# [19] = dose: 200.0 mg/kg/injection, schedule: Q01DX005 (ip), vehicle: saline with Tween-80
structure (smiles),measurement,setting,value
c1ccc(CCC(Cc2cccnc2)c2ccccn2)nc1 (stereo not drawn),T/C,"dose: 100.0 mg/kg/injection, schedule: Q04DX002 (ip), vehicle: saline",95 % of control
same,T/C,"dose: 200.0 mg/kg/injection, schedule: Q04DX002 (ip), vehicle: saline",104 % of control
CN1C(c2ccncc2)=NCC12CCCCC2,T/C,"dose: 6.25 mg/kg/injection, schedule: Q01DX005 (ip), vehicle: saline",97 % of control
same,T/C,"dose: 12.5 mg/kg/injection, schedule: Q01DX005 (ip), vehicle: saline",100 % of control
same,T/C,"dose: 12.5 mg/kg/injection, schedule: Q04DX002 (ip), vehicle: saline",106 % of control
same,T/C,"dose: 25.0 mg/kg/injection, schedule: Q01DX005 (ip), vehicle: saline",95 % of control
same,T/C,"dose: 25.0 mg/kg/injection, schedule: Q04DX002 (ip), vehicle: saline",106 % of control
O=C(NO)/C(CC(=O)c1ccccc1O)=N\O,T/C,[1],100 % of control
same,T/C,[2],111 % of control
same,T/C,[3],103 % of control
Cc1ccc(/C=C2/C/C(=C\c3ccc(C)cc3)C2=O)cc1,T/C,"dose: 12.5 mg/kg/injection, schedule: Q04DX003 (ip), vehicle: Klucel (hydroxypropylcellulose) (HPC)",94 % of control
same,T/C,"dose: 25.0 mg/kg/injection, schedule: Q04DX003 (ip), vehicle: Klucel (hydroxypropylcellulose) (HPC)",92 % of control
same,T/C,"dose: 50.0 mg/kg/injection, schedule: Q04DX003 (ip), vehicle: Klucel (hydroxypropylcellulose) (HPC)",87 % of control
same,T/C,"dose: 400.0 mg/kg/injection, schedule: Q04DX003 (ip), vehicle: Klucel (hydroxypropylcellulose) (HPC)",88 % of control
CN(C)C=O,T/C,"dose: 12.5 mg/kg/injection, schedule: Q01DX009 (ip), vehicle: saline",103 % of control and 111 % of control
same,T/C,"dose: 25.0 mg/kg/injection, schedule: Q01DX009 (ip), vehicle: saline",103 % of control and 107 % of control
same,T/C,[4],107 % of control (2×) and 111 % of control
same,T/C,[5],109 % of control and 115 % of control and 116 % of control
same,T/C,"dose: 800.0 mg/kg/injection, schedule: Q01DX009 (ip), vehicle: saline",120 % of control
same,T/C,"dose: 1600.0 mg/kg/injection, schedule: Q01DX009 (ip), vehicle: saline",118 % of control
same,T/C,"dose: 2.0 % in 0.5 ml injection vol, schedule: Q01DX009 (ip), vehicle: water",107 % of control and 119 % of control
same,T/C,"dose: 4.0 % in 0.5 ml injection vol, schedule: Q01DX009 (ip), vehicle: water",116 % of control and 119 % of control
same,T/C,"dose: 8.0 % in 0.5 ml injection vol, schedule: Q01DX009 (ip), vehicle: water",119 % of control
OC(CO/N=C1\CCc2ccccc21)CN1CCOCC1 (stereo not drawn),T/C,"dose: 50.0 mg/kg/injection, schedule: Q01DX005 (ip), vehicle: saline",105 % of control
same,T/C,"dose: 100.0 mg/kg/injection, schedule: Q01DX005 (ip), vehicle: saline",104 % of control
same,T/C,"dose: 200.0 mg/kg/injection, schedule: Q01DX005 (ip), vehicle: saline",104 % of control
O=C1NC(=O)C(=C2C(=O)COC2=O)C(=O)N1,T/C,[1],103 % of control
same,T/C,[2],106 % of control
same,T/C,[3],104 % of control
C=C(C)CC1(CCCCCCCCCC)C(=O)NC(=O)NC1=O,T/C,"dose: 50.0 mg/kg/injection, schedule: Q04DX003 (ip), vehicle: saline with Tween-80",105 % of control
same,T/C,[6],102 % of control
same,T/C,[7],93 % of control
CC(=O)C(C)(NCc1ccccc1)c1ccccc1 (stereo not drawn),T/C,[8],101 % of control
same,T/C,[9],108 % of control
same,T/C,[10],108 % of control
same,T/C,"dose: 400.0 mg/kg/injection, schedule: Q01DX009 (ip), vehicle: Klucel (hydroxypropylcellulose) (HPC)",90 % of control
COC(=O)C(Br)CN1C(=O)c2ccccc2C1=O (stereo not drawn),T/C,"dose: 25.0 mg/kg/injection, schedule: Q01DX009 (ip), vehicle: other",102 % of control
same,T/C,"dose: 50.0 mg/kg/injection, schedule: Q01DX009 (ip), vehicle: other",101 % of control
same,T/C,"dose: 100.0 mg/kg/injection, schedule: Q01DX009 (ip), vehicle: other",106 % of control
same,T/C,"dose: 200.0 mg/kg/injection, schedule: Q01DX009 (ip), vehicle: other",104 % of control
same,T/C,"dose: 400.0 mg/kg/injection, schedule: Q01DX009 (ip), vehicle: other",104 % of control
Nc1nc([Se]c2nc(N)nc3c2ncn3C2OC(CO)C(O)C2O)c2ncn(C3OC(CO)C(O)C3O)c2n1 (stereo not drawn),T/C,"dose: 25.0 mg/kg/injection, schedule: Q01DX005 (ip), vehicle: distilled water + Tween-80",150 % of control
same,T/C,"dose: 50.0 mg/kg/injection, schedule: Q01DX005 (ip), vehicle: distilled water + Tween-80",161 % of control
same,T/C,"dose: 100.0 mg/kg/injection, schedule: Q01DX005 (ip), vehicle: distilled water + Tween-80",156 % of control
O=C(NCCCN1CCOCC1)Nc1ccc(Cc2ccc(NC(=O)NCCCN3CCOCC3)cc2)cc1,T/C,[8],94 % of control
same,T/C,[9],94 % of control
same,T/C,[10],94 % of control
COc1ccc(C(C)=O)cc1OC,T/C,[11],100 % of control
same,T/C,[12],100 % of control
same,T/C,[13],100 % of control
Nc1nc2ncc(CCCl)cc2c(=O)[nH]1,T/C,[14],102 % of control
same,T/C,[15],123 % of control
same,T/C,"dose: 200.0 mg/kg/injection, schedule: Q01DX005 (ip), vehicle: Klucel (hydroxypropylcellulose) (HPC)",107 % of control
CN1[C@H]2CC[C@@H]1[C@@H](O)CC2,T/C,[16],97 % of control
same,T/C,[17],97 % of control
same,T/C,[18],91 % of control
C[As](C)SCCO,T/C,"dose: 12.5 mg/kg/injection, schedule: Q01DX005 (ip), vehicle: saline with Tween-80",110 % of control
same,T/C,[16],115 % of control
same,T/C,[17],117 % of control
same,T/C,"dose: 50.0 mg/kg/injection, schedule: Q04DX002 (ip), vehicle: saline with Tween-80",109 % of control
O=C(NCCCCCNC(=O)C12CC3CC(CC(C3)C1)C2)C12CC3CC(CC(C3)C1)C2,T/C,[14],90 % of control
same,T/C,[17],102 % of control
same,T/C,[15],89 % of control
same,T/C,[18],105 % of control
same,T/C,[19],95 % of control
C=CCN1CCCC1=O,T/C,[11],100 % of control
same,T/C,[12],100 % of control
same,T/C,[13],95 % of control
NN1CCCC1,T/C,[11],90 % of control
same,T/C,[12],95 % of control
CCOC(=O)C(Cc1csc2ccc(Cl)cc12)(NC(C)=O)C(=O)OCC,T/C,[8],96 % of control
same,T/C,[9],96 % of control
same,T/C,[10],94 % of control
Cc1cc(O)c(-c2c(-c3ccccc3C(=O)O)oc3cc(C)c(C)cc23)cc1C,T/C,[4],89 % of control
same,T/C,[5],89 % of control
same,T/C,"dose: 200.0 mg/kg/injection, schedule: Q01DX009 (ip), vehicle: saline",90 % of control
CCOC(=O)c1ccc(NCC#N)cc1,T/C,[6],100 % of control
same,T/C,[7],100 % of control
same,T/C,"dose: 400.0 mg/kg/injection, schedule: Q04DX003 (ip), vehicle: saline with Tween-80",100 % of control
O=C(O)C(Cc1ccc(O)cc1)NS(=O)(=O)Cc1ccccc1 (stereo not drawn),T/C,"dose: 100.0 mg/kg/injection, schedule: Q01DX009 (ip), vehicle: DMSO",99 % of control
same,T/C,"dose: 200.0 mg/kg/injection, schedule: Q01DX009 (ip), vehicle: DMSO",92 % of control
FC(F)(F)C(Cl)(c1ccc(Cl)cc1)c1ccc(Cl)cc1,T/C,"dose: 50.0 mg/kg/injection, schedule: Q01DX005 (sc), vehicle: olive oil, sesame oil, peanut oil",96 % of control
same,T/C,"dose: 100.0 mg/kg/injection, schedule: Q01DX005 (sc), vehicle: olive oil, sesame oil, peanut oil",96 % of control
same,T/C,"dose: 200.0 mg/kg/injection, schedule: Q01DX005 (sc), vehicle: olive oil, sesame oil, peanut oil",95 % of control
same,T/C,"dose: 400.0 mg/kg/injection, schedule: Q01DX005 (sc), vehicle: olive oil, sesame oil, peanut oil",100 % of control
CSc1nc(SC)c2cn(Cc3ccccc3)nc2n1,T/C,[17],105 % of control
same,T/C,[18],108 % of control
same,T/C,[19],102 % of control
